Experimental data published in patent US9040727B2, “Histone deacetylase inhibitor of benzamides and use thereof” (Shanghai Institute of Pharmaceutical Industry, priority 2011, dated 2015).
Like-named read-outs stand apart in the source and are kept apart here.

How the values were obtained:
HDAC1 = HDAC1 (Homo sapiens (Human), UniProt Q13547); experiment: In vitro inhibitory activity towards HDAC1 (HDAC Inhibitor Drug Screening Kit); format: biochemical; settings: for inhibition at 1 µM: compound at 1 μM; for inhibition at 10 µM: compound at 10 μM; for inhibitory activity against HDAC1 compared with MS-275 (by IC50): comparison with MS-275
HDAC1, sequence (Q13547 whole entry): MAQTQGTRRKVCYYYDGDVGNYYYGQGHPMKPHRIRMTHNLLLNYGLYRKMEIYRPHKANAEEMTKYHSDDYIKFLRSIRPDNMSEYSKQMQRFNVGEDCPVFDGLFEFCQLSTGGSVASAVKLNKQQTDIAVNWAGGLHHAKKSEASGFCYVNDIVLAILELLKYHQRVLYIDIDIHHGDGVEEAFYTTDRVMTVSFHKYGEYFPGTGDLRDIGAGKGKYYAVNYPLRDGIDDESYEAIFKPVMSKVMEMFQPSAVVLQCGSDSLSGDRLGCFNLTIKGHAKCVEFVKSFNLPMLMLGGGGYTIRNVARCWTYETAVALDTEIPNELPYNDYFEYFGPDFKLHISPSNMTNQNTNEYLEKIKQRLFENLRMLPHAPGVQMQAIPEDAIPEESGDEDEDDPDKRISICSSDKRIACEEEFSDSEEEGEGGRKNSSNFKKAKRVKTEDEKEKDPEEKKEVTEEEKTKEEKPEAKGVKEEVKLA
Procedure: (1) The compounds to be tested were each individually prepared as 10 μM and 1 μM solutions and their inhibitory activities towards HDAC1 at these concentrations were tested.
(§1) Each dilution sample was placed in two wells and the enzyme inhibition IC50 of the compound was tested.

[1] = system: A549 human lung cancer cells; experiment: In vitro anti-proliferative effect, CCK-8 method; format: cell-based
Procedure: (§2) The inhibitory activities of the compounds towards Hut78 T lymphocytic leukemia cells, Jurkat E6-1 human T-cell lymphoma, A549 human lung cancer cells, K562 human chronic myelogenous leukemia cells, Hep3B2.1-7 human liver cancer cells, MDA-MB-435s human breast cancer cells, Colo320 human rectal cancer cell line, and PC-3 human prostate cancer were determined. The inhibition percentages as represented by IC50 values were obtained through CCK-8 method.

[2] = system: Colo320 human rectal cancer cell line; experiment: In vitro anti-proliferative effect, CCK-8 method; format: cell-based
Procedure: as §2

[3] = system: Hep3B2.1-7 human liver cancer cells; experiment: In vitro anti-proliferative effect, CCK-8 method; format: cell-based; settings: Hep3B
Procedure: as §2

[4] = system: Hut78 T lymphocytic leukemia cells; experiment: In vitro anti-proliferative effect, CCK-8 method; format: cell-based
Procedure: as §2

[5] = system: Jurkat E6-1 human T-cell lymphoma; experiment: In vitro anti-proliferative effect, CCK-8 method; format: cell-based
Procedure: as §2

[6] = system: K562 human chronic myelogenous leukemia cells; experiment: In vitro anti-proliferative effect, CCK-8 method; format: cell-based
Procedure: as §2

[7] = system: PC-3 human prostate cancer; experiment: In vitro anti-proliferative effect, CCK-8 method; format: cell-based
Procedure: as §2

hERG potassium channel = hERG potassium channel (Homo sapiens (Human), UniProt Q12809); experiment: Effects on hERG potassium channel; format: cell-based
hERG potassium channel, sequence (Q12809 whole entry): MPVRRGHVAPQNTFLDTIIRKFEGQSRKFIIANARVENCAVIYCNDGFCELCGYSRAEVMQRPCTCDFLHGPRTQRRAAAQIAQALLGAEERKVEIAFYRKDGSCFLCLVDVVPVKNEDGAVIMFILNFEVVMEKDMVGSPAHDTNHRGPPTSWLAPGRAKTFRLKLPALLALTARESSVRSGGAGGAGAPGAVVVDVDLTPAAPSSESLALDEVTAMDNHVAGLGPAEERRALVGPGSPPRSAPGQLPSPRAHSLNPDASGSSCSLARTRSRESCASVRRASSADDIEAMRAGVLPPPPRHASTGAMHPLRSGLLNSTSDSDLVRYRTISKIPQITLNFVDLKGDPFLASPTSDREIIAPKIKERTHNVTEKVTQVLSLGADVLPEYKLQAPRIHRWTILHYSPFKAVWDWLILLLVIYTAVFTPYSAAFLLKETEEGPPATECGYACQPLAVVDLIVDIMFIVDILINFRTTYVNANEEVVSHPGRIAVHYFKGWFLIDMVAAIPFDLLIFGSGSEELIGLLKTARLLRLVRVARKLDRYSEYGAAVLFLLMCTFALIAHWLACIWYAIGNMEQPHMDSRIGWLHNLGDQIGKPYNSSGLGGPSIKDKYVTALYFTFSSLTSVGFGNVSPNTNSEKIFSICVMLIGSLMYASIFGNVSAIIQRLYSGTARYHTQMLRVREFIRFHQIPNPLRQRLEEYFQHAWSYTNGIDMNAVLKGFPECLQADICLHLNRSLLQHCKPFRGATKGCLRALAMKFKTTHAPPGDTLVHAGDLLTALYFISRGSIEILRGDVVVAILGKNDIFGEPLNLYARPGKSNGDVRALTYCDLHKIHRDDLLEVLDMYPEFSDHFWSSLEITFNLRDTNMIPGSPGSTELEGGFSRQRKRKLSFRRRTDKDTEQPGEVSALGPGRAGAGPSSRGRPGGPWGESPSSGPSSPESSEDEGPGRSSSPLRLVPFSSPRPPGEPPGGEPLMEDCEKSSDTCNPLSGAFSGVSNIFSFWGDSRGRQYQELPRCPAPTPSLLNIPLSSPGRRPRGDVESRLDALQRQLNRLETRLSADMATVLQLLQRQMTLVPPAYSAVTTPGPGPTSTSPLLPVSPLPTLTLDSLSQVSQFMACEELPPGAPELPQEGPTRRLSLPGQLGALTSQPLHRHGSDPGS

[8] = Preliminary pharmacokinetic experiment; settings: in vivo, rat
HDACs = experiment: In vitro inhibition of HDACs (HDAC Inhibitor Drug Screening Kit); format: biochemical; settings: for inhibitory activity on HDACs compared with MS-275 (by IC50): comparison with MS-275
Procedure: The test was conducted according to the instructions in the HDAC Inhibitor Drug Screening Kit (Biovision/Catalog #50051, BPS).
as §1

[9] = system: multiple strains of tumor cells; experiment: In vitro inhibition of proliferation of tumor cell strains (overall comparison); format: cell-based; settings: comparison with MS-275
Procedure: as §2

[10] = system: MDA-MB-435s human breast cancer cells; experiment: In vitro anti-proliferative effect, CCK-8 method; format: cell-based
Procedure: as §2

Row | SMILES | inhibition at 1 µM (HDAC1) [%] | inhibition at 10 µM (HDAC1) [%] | inhibitory activity against HDAC1 compared with MS-275 (by IC50) (HDAC1) | IC50 ([4]; Homo sapiens, HuT78) [nM] | IC50 (HDAC1) [nM] | IC50 (HDACs) [nM] | also measured
1 | Nc1ccccc1NC(=O)c1ccc(CNC(=O)c2ccc3ccccc3c2)cc1 [Compound V-1] | 4.49 | 15.2 | – | – | – | – | –
2 | Nc1ccc(F)cc1NC(=O)c1ccc(CNC(=O)c2ccc3ccccc3c2)cc1 [Compound V-2] | 28.8 | 46.9 | – | – | – | – | –
3 | COc1ccc2cc(C(=O)NCc3ccc(C(=O)Nc4ccccc4N)cc3)ccc2c1 [Compound V-3] | 33.3 | 60 | – | – | – | – | –
4 | COc1ccc2cc(C(=O)NCc3ccc(C(=O)Nc4cc(F)ccc4N)cc3)ccc2c1 [Compound V-4] | 24.7 | 44.8 | – | – | – | – | –
5 | Nc1ccccc1NC(=O)c1ccc(CNC(=O)c2cc3ccccc3[nH]2)cc1 [Compound V-5] | 59.6 | 81.1 | better inhibitory activities against HDAC1 as compared with MS-275 | 19.4 | – | – | IC50 ([1]; Homo sapiens): 2640 nM; IC50 ([2]; Homo sapiens, COLO 320): 2450 nM; IC50 ([3]; Homo sapiens): 3460 nM; IC50 ([5]; Homo sapiens): 179 nM; IC50 [6]: 1310 nM; IC50 ([7]; Homo sapiens): 242 nM; inhibition at 10 µM (hERG potassium channel; human, hERG potassium current, 10 μM, read-out: Maximum inhibition percentage at 10 μM): 11.5 ± 0.8%; IC50 (hERG potassium channel; read-out: Half inhibition concentration for the effect on hERG potassium current IC50): > 10000 nM; half-life ([8]; iv, 2 mg/kg, i.v., read-out: Intravenous half-life (converted)): 1.27 h; bioavailability ([8]; oral): 7.84%; half-life ([8]; oral, read-out: Oral half-life (converted)): 3.7 h
6 | Nc1cnccc1NC(=O)c1ccc(CNC(=O)c2cc3ccccc3[nH]2)cc1 [Compound V-6] | 68.5 | 74.5 | better inhibitory activities against HDAC1 as compared with MS-275 | 8.8 | 344 | 7790 | IC50 ([1]; Homo sapiens): 1250 nM; IC50 ([2]; Homo sapiens, COLO 320): 3130 nM; IC50 ([3]; Homo sapiens): 3070 nM; IC50 ([5]; Homo sapiens): 128 nM; IC50 [6]: 2090 nM; IC50 ([7]; Homo sapiens): 370 nM; inhibition rate for tumor cells compared with MS-275 [9]: higher inhibition rate for multiple strains of tumor cells as compared with MS-275
7 | Nc1ccc(F)cc1NC(=O)c1ccc(CNC(=O)c2cc3ccccc3[nH]2)cc1 [Compound V-7] | 41.4 | 53.3 | – | – | – | – | –
8 | Nc1ccccc1NC(=O)c1ccc(CNC(=O)c2cc3ccccc3o2)cc1 [Compound V-8] | 62.2 | 79.5 | – | – | – | – | –
9 | Nc1ccc(-c2cccs2)cc1NC(=O)c1ccc(CNC(=O)c2cc3ccccc3o2)cc1 [Compound V-10] | 58.9 | 75.4 | – | – | – | – | –
10 | Nc1ccc(-c2ccccc2)cc1NC(=O)c1ccc(CNC(=O)c2cc3ccccc3o2)cc1 [Compound V-11] | 38.1 | 58.5 | – | – | – | – | –
11 | Nc1ccccc1NC(=O)c1ccc(CNC(=O)c2nc3ccccc3[nH]2)cc1 [Compound V-12] | 8.7 | 28.4 | – | – | – | – | –
12 | Nc1ccc(F)cc1NC(=O)c1ccc(CNC(=O)c2nc3ccccc3[nH]2)cc1 [Compound V-13] | 13.4 | 23.9 | – | – | – | – | –
13 | Nc1ccc(-c2ccco2)cc1NC(=O)c1ccc(CNC(=O)c2nc3ccccc3[nH]2)cc1 [Compound V-14] | 74.8 | 87.2 | better inhibitory activities against HDAC1 as compared with MS-275 | 356 | – | – | IC50 ([1]; Homo sapiens): 3140 nM; IC50 ([3]; Homo sapiens): 1520 nM; IC50 ([5]; Homo sapiens): 458 nM; IC50 [6]: 437 nM
14 | Nc1ccccc1NC(=O)c1ccc(CNC(=O)c2cccc3ccccc23)cc1 [Compound V-15] | 29.8 | 67.5 | better inhibitory activities against HDAC1 as compared with MS-275 | 2780 | – | – | inhibitory activity on HDACs compared with MS-275 (by IC50) (HDACs): better inhibitory activities than MS-275; IC50 ([2]; Homo sapiens, COLO 320): 9340 nM; IC50 ([3]; Homo sapiens): 2760 nM; IC50 ([5]; Homo sapiens): 1370 nM; IC50 [6]: 2880 nM; IC50 ([7]; Homo sapiens): 2630 nM
15 | Nc1cnccc1NC(=O)c1ccc(CNC(=O)c2cccc3ccccc23)cc1 [Compound V-16] | 62.5 | 85.1 | better inhibitory activities against HDAC1 as compared with MS-275 | 1790 | 276 | 3110 | inhibitory activity on HDACs compared with MS-275 (by IC50) (HDACs): better inhibitory activities than MS-275; IC50 ([2]; Homo sapiens, COLO 320): 86000 nM; IC50 ([3]; Homo sapiens): 3360 nM; IC50 [6]: 6080 nM
16 | Nc1ccc(F)cc1NC(=O)c1ccc(CNC(=O)c2cccc3ccccc23)cc1 [Compound V-17] | 54 | 76.2 | – | – | 735 | 920 | inhibitory activity on HDACs compared with MS-275 (by IC50) (HDACs): better inhibitory activities than MS-275
17 | Nc1ccccc1NC(=O)c1ccc(CNC(=O)c2cc3cc(F)ccc3[nH]2)cc1 [Compound V-18] | 22.1 | 49.5 | – | – | – | – | –
18 | Cc1ccc2[nH]c(C(=O)NCc3ccc(C(=O)Nc4ccccc4N)cc3)cc2c1 [Compound V-19] | 73.1 | 84 | better inhibitory activities against HDAC1 as compared with MS-275 | 1190 | 414 | 1140 | inhibitory activity on HDACs compared with MS-275 (by IC50) (HDACs): better inhibitory activities than MS-275; IC50 ([3]; Homo sapiens): 10200 nM; IC50 [6]: 1910 nM; IC50 ([7]; Homo sapiens): 191 nM; inhibition rate for tumor cells compared with MS-275 [9]: higher inhibition rate for multiple strains of tumor cells as compared with MS-275
19 | Nc1ccccc1NC(=O)c1ccc(CNC(=O)c2cc3cc(C(F)(F)F)ccc3[nH]2)cc1 [Compound V-20] | 39.4 | 72.2 | – | – | – | – | –
20 | COc1c(C(=O)NCc2ccc(C(=O)Nc3ccccc3N)cc2)oc2ccccc12 [Compound V-21] | 34.4 | 68.8 | – | – | 758 | 9400 | –
21 | CNc1ccc2[nH]c(C(=O)NCc3ccc(C(=O)Nc4ccccc4N)cc3)cc2c1 [Compound V-22] | 36.8 | 59.5 | – | – | – | – | –
22 | Nc1ccc2[nH]c(C(=O)NCc3ccc(C(=O)Nc4ccccc4N)cc3)cc2c1 [Compound V-23] | 67.1 | 78.8 | – | – | 998 | 6890 | –
23 | Nc1ccccc1NC(=O)c1ccc(CNC(=O)c2cc3ccccc3s2)cc1 [Compound V-24] | 59.1 | 67.4 | – | – | 1580 | 1720 | inhibitory activity on HDACs compared with MS-275 (by IC50) (HDACs): better inhibitory activities than MS-275
24 | CC(=O)Nc1ccc2[nH]c(C(=O)NCc3ccc(C(=O)Nc4ccccc4N)cc3)cc2c1 [Compound V-25] | 53.9 | 76.2 | better inhibitory activities against HDAC1 as compared with MS-275 | 877 | 301 | 1020 | IC50 ([1]; Homo sapiens): 295 nM; IC50 ([7]; Homo sapiens): 69 nM; inhibition rate for tumor cells compared with MS-275 [9]: higher inhibition rate for multiple strains of tumor cells as compared with MS-275
25 | CC(=O)c1ccc2[nH]c(C(=O)NCc3ccc(C(=O)Nc4ccccc4N)cc3)cc2c1 [Compound V-26] | 59.3 | 70.8 | better inhibitory activities against HDAC1 as compared with MS-275 | 231 | 509 | 1370 | IC50 ([1]; Homo sapiens): 29900 nM; IC50 ([2]; Homo sapiens, COLO 320): 88400 nM; IC50 ([3]; Homo sapiens): 52200 nM; IC50 ([5]; Homo sapiens): 12400 nM; IC50 [6]: 19900 nM; IC50 ([7]; Homo sapiens): 12200 nM
26 | Nc1ccc(F)cc1NC(=O)c1ccc(CNC(=O)c2cc3ccccc3s2)cc1 [Compound V-27] | 47.6 | 80.2 | better inhibitory activities against HDAC1 as compared with MS-275 | 55.8 | 276 | 1220 | IC50 ([1]; Homo sapiens): 5090 nM; IC50 ([2]; Homo sapiens, COLO 320): 27000 nM; IC50 ([3]; Homo sapiens): 16000 nM; IC50 ([5]; Homo sapiens): 1390 nM; IC50 [6]: 2810 nM; IC50 ([7]; Homo sapiens): 3570 nM; inhibition rate for tumor cells compared with MS-275 [9]: higher inhibition rate for multiple strains of tumor cells as compared with MS-275
27 | Nc1cnccc1NC(=O)c1ccc(CNC(=O)c2cc3ccccc3s2)cc1 [Compound V-28] | 53.5 | 77.4 | – | – | 731 | 1310 | –
28 | Nc1ccccc1NC(=O)c1ccc(CNC(=O)OCc2cccnc2)cc1 [MS-275, reference compound] | – | – | – | – | – | 3520 | IC50 [1]: 2280 nM; IC50 [2]: 522 nM; IC50 [3]: 6820 nM; IC50 ([4]; Hut78): 528 nM; IC50 [5]: 561 nM; IC50 [10]: 2710 nM; IC50 [7]: 502 nM
